{"source": "patent US8603546B2", "about": "“Herbal supplement for increased muscle strength and endurance for athletes” (priority 1999, dated 2013)", "key": {"athletes [1]": {"system": "athletes", "assay": "Strength group: maximum weight lifted in 6 basic exercises by athletes taking galanthamine", "format": "in vivo, human", "description": "(§1) 30 healthy individuals, both male and female, ages 18-28, are separated into 2 groups, 15 persons each, to observe the changes in their strength and endurance after administration of galanthamine and regular physical training. All subjects are athletes who have exercised regularly in the gym for 1 to 3 years. During the 3 week test period, all subjects train about 4 times a week with a special exercise program for the first week as described below, supplemented with the subjects' own preferred training schedule. Strength and endurance are observed through 6 basic exercises involving the major muscle groups as follows:\n10 participants in each group take galanthamine, the other 5 take a placebo. The dosage of galanthamine is 7.5 mg daily taken with a meal 1.5-2 hours before the workout on training days and 5 mg daily on non-training days divided into two equal portions taken in the morning and in the afternoon. 2. The Strength Group. • a. The initial level. Before administration of galanthamine the initial strength level of each subject is determined and is defined as the maximum weight a subject is able to lift in all 6 exercises. • b. The training schedule. The subjects use a split training method, that is they alternate on one day training their chest, back and shoulder muscles (performing exercises #1, 2 and 3, respectively) and the next day train their biceps, triceps and legs (exercises #4, 5 and 6, respectively). The subjects do 5-6 sets in each exercise using a pyramidal principle for increasing their strength, i.e. they start every exercise doing 10-15 repetitions using a middle weight, then increase the weight gradually, being able to do fewer repetitions, until the maximum weight they are able to lift for one repetition with difficulty is reached. 2 sets are then performed using the same or 5-10% less weight. This maximum weight is considered the “record for the day”, and is compared to the initial level. • c. The results. An increase in strength is observed almost immediately after administration of galanthamine. […]"}, "athletes [2]": {"system": "athletes", "assay": "Endurance group: maximum repetitions in 6 basic exercises by athletes taking galanthamine", "format": "in vivo, human", "conditions": "vs initial level", "description": "as §1\n10 participants in each group take galanthamine, the other 5 take a placebo. The dosage of galanthamine is 7.5 mg daily taken with a meal 1.5-2 hours before the workout on training days and 5 mg daily on non-training days divided into two equal portions taken in the morning and in the afternoon. 2. The Strength Group. • a. The initial level. Before administration of galanthamine the initial strength level of each subject is determined and is defined as the maximum weight a subject is able to lift in all 6 exercises. • b. The training schedule. […]"}}}
{"smiles": "COc1ccc2c3c1O[C@H]1C[C@@H](O)C=C[C@@]31CCN(C)C2", "note": "[galanthamine]", "values": [{"measurement": "average increase in strength", "setting": "athletes [1]; after 1 week, 7.5 mg daily on training days, 5 mg daily on non-training days, vs initial level", "result": "4-7%"}, {"measurement": "total increase in strength", "setting": "athletes [1]; by the third week, 7.5 mg daily on training days, 5 mg daily on non-training days, vs initial level", "result": "10-13%"}, {"measurement": "increase in strength reported by athletes", "setting": "athletes [1]; continued galanthamine for up to 3 months, during the entire period", "result": "over 20%"}, {"measurement": "average endurance increase", "setting": "athletes [2]; after the first week, 7.5 mg daily on training days, 5 mg daily on non-training days", "result": 11, "unit": "%"}, {"measurement": "average endurance increase", "setting": "athletes [2]; end of the trial, after 3 weeks of treatment", "result": 24, "unit": "%"}]}
